A short description of series [1]: Cytotoxicity against rat H9c2 cells assessed as inhibition of cell viability incubated for 24 hrs by MTT assay. It is filed as toxicity, cell-based.
The nature of series [2]: Cytotoxicity against human WI-38 cells assessed as inhibition of cell viability incubated for 24 hrs by MTT assay. Format: toxicity, cell-based.
The nature of series [3]: Cytotoxicity against human HK-2 cells assessed as inhibition of cell viability incubated for 24 hrs by MTT assay. Format: toxicity, cell-based.
In another series the test system is A549. As to the kind of experiment: Cytotoxicity against human A549 cells assessed as inhibition of cell viability incubated for 24 hrs by MTT assay. Format: functional, cell-based. The conditions noted are these: A549, 24 h.
A further series deals with Huh-7. As to the kind of experiment: Cytotoxicity against human Huh-7 cells assessed as inhibition of cell viability incubated for 24 hrs by MTT assay. It is filed as functional, cell-based. The conditions noted are these: Huh-7, 24 h.
Series [4] is described as follows: Cytotoxicity against mouse RAW264.7 cells assessed as cell survival at 30 uM incubated for 24 hrs by MTT assay relative to control. It is filed as toxicity, cell-based. As to conditions: read-out: Activity.
The nature of series [5]: Cytotoxicity against mouse RAW264.7 cells assessed as cell survival at 60 uM incubated for 24 hrs by MTT assay relative to control. Format: toxicity, cell-based. The conditions noted are these: read-out: Activity.
The next series has as its system RAW264.7. As to the kind of experiment: Inhibition of NO release in mouse RAW264.7 cells incubated for 24 hrs by Griess reagent based assay. It is filed as functional, cell-based. As to conditions: RAW264.7, 24 h.
Series [6] relates to Mus musculus. In words: Anti-septic activity in C57BL/6 mouse model assessed as reversal of LPS-induced damage of renal tubules at 15 to 30 mg/kg, ip qd treated for 7 days by H and E staining based analysis. Format: functional, organism-based. As to conditions: dose 15-30 mg/kg, time 7.0 day.
Series [7] relates to Mus musculus. As to the kind of experiment: Anti-septic activity in C57BL/6 mouse model assessed as reversal of LPS-induced inflammatory cell infiltration in renal interstitium at 30 mg/kg, ip qd treated for 7 days by H and E staining based analysis. It is filed as functional, organism-based. As to conditions: time 7.0 day.
Series [8] has as its system Mus musculus. As to the kind of experiment: Anti-septic activity in C57BL/6 mouse model assessed as reversal of LPS-induced kidney injury at 30 mg/kg, ip qd treated for 7 days by H and E staining based analysis. It is filed as functional, organism-based. As to conditions: time 7.0 day.
Series [9] concerns Mus musculus. As to the kind of experiment: Anti-septic activity in C57BL/6 mouse model assessed as reversal of LPS-induced accumulation of interstitial vacoules in kidney at 30 mg/kg, ip qd treated for 7 days by H and E staining based analysis. Format: functional, organism-based. As to conditions: time 7.0 day.
The subject of series [10] is Mus musculus. In words: Anti-septic activity in C57BL/6 mouse model assessed as reversal of LPS-induced kidney injury at 15 mg/kg, ip qd treated for 7 days by H and E staining based analysis. Format: functional, organism-based. As to conditions: time 7.0 day.
Series [11] deals with Mus musculus. In words: Anti-septic activity in C57BL/6 mouse model assessed as reversal of LPS-induced disappearance of renal internal brush border structure at 30 mg/kg, ip qd treated for 7 days by H and E staining based analysis. It is filed as functional, organism-based. As to conditions: time 7.0 day.
Series [12] has as its system Mus musculus. In words: Anti-septic activity in C57BL/6 mouse model assessed as reversal of LPS-induced inflammatory cell infiltration in renal interstitium at 15 mg/kg, ip qd treated for 7 days by H and E staining based analysis. Format: functional, organism-based. As to conditions: time 7.0 day.

The source made the active and inactive calls. The calls are words filed in the database; no cut-off is given here. Some results are limits rather than exact numbers.

Take `COC(=O)[C@@]1(C)CC[C@]2(C)CC[C@]3(C)C(=CC(=O)[C@@H]4[C@@]5(C)CC[C@H](OCc6cn(C7O[C@H](COC(C)=O)[C@@H](OC(C)=O)[C@H](OC(C)=O)[C@H]7OC(C)=O)nn6)C(C)(C)C5CC[C@]43C)[C@H]2C1` (stereo partly specified): the IC50 at 24 h worked out at 87.8 µM in [1], 105 µM in series [2] and 56.1 µM in series [3]. For the same molecule, the IC50 with A549 turned out to be 32.7 µM; in the series on Huh-7, 23.5 µM.
`CC(=O)OC[C@@H]1OC(n2cc(COC(=O)[C@@]3(C)CC[C@]4(C)CC[C@]5(C)C(=CC(=O)[C@@H]6[C@@]7(C)CC[C@H](OC(=O)CCc8ccccc8)C(C)(C)C7CC[C@]65C)[C@H]4C3)nn2)[C@@H](OC(C)=O)[C@H]1OC(C)=O` (stereo partly specified): in series [4], the viability at 24 h, 30 µM is more than 70%. Moreover, the figures for the IC50 at 24 h in [1], in [2] and in series [3] were 330 µM, 348 µM and 557 µM, respectively. Moreover, the viability at 24 h, 60 µM in [5] was less than 70%. Further, the figures for the IC50 in the series on RAW264.7, with A549 and in the series with Huh-7 were 46.2 µM, 92.8 µM and 91.3 µM, respectively.
`COC(=O)[C@@]1(C)CC[C@]2(C)CC[C@]3(C)C(=CC(=O)[C@@H]4[C@@]5(C)CC[C@H](OCc6cn(C7O[C@H](COC(C)=O)[C@H](OC(C)=O)[C@H](OC(C)=O)[C@H]7OC(C)=O)nn6)C(C)(C)C5CC[C@]43C)[C@H]2C1` (stereo partly specified): the IC50 at 24 h came out at 92.4 µM in series [1], 96.4 µM in [2] and 42.2 µM in series [3]. Besides, the half-inhibitory concentration (IC50) in the series on A549 came out at 39.4 µM; in the series with Huh-7, 28 µM.
With `CC(=O)O[C@H]1[C@H](C)OC(n2cc(COC(=O)[C@@]3(C)CC[C@]4(C)CC[C@]5(C)C(=CC(=O)[C@@H]6[C@@]7(C)CC[C@H](OC(=O)CCc8ccccc8)C(C)(C)C7CC[C@]65C)[C@H]4C3)nn2)C[C@@H]1OC(C)=O` (stereo partly specified), in series [4], the viability at 24 h, 30 µM was more than 70%. For the same molecule, the IC50 at 24 h is 406 µM in series [1], more than 800 µM in series [2] and more than 800 µM in series [3]. The viability at 24 h, 60 µM in series [5] was less than 70%. Also, the figures for the IC50 in the series on RAW264.7, in the series on A549 and in the series on Huh-7 were 30.8 µM, 100 µM and 112 µM, respectively.
Regarding `CC(=O)OC[C@@H]1OC(n2cc(COC(=O)[C@@]3(C)CC[C@]4(C)CC[C@]5(C)C(=CC(=O)[C@@H]6[C@@]7(C)CC[C@H](OC(=O)CCc8ccccc8)C(C)(C)C7CC[C@]65C)[C@H]4C3)nn2)[C@@H](OC(C)=O)[C@H](OC(C)=O)[C@@H]1OC(C)=O` (stereo partly specified), the IC50 at 24 h came out at 114 µM in series [1], 201 µM in [2] and 127 µM in series [3]. Also, in series [5], the viability at 24 h, 60 µM was less than 70%. The figures for the IC50 with RAW264.7, in the series with A549 and with Huh-7 were 22.8 µM, 93.4 µM and 86.2 µM, respectively.
For `CC(=O)OC[C@@H]1OC(n2cc(COC(=O)[C@@]3(C)CC[C@]4(C)CC[C@]5(C)C(=CC(=O)[C@@H]6[C@@]7(C)CC[C@H](OC(=O)CCc8ccccc8)C(C)(C)C7CC[C@]65C)[C@H]4C3)nn2)[C@H](OC(C)=O)[C@H](OC(C)=O)[C@@H]1OC(C)=O` (stereo partly specified), the viability at 24 h, 30 µM in series [4] was more than 70%. For the same molecule, the IC50 at 24 h in [1] was more than 800 µM; in series [2], 590 µM; in series [3], more than 800 µM. The figures for the IC50 with RAW264.7, with A549 and with Huh-7 were 40.8 µM, 108 µM and 174 µM, respectively.
`COC(=O)[C@@]1(C)CC[C@]2(C)CC[C@]3(C)C(=CC(=O)[C@@H]4[C@@]5(C)CC[C@H](OCc6cn(C7O[C@H](COC(C)=O)[C@@H](OC(C)=O)[C@H]7OC(C)=O)nn6)C(C)(C)C5CC[C@]43C)[C@H]2C1` (stereo partly specified): the values for the IC50 at 24 h in series [1], in series [2] and in series [3] were 77 µM, 93.9 µM and 59.7 µM, respectively. The IC50 was 27.8 µM in the series on A549 and 30.1 µM in the series with Huh-7.
Take `COC(=O)[C@@]1(C)CC[C@]2(C)CC[C@]3(C)C(=CC(=O)[C@@H]4[C@@]5(C)CC[C@H](OCc6cn(C7O[C@H](COC(C)=O)[C@@H](OC(C)=O)[C@H](OC(C)=O)[C@@H]7OC(C)=O)nn6)C(C)(C)C5CC[C@]43C)[C@H]2C1` (stereo partly specified): the results for the IC50 at 24 h in [1], in series [2] and in series [3] were 65.3 µM, 89.4 µM and 57.2 µM, respectively. The figures for the IC50 in the series on A549 and in the series on Huh-7 were 23.1 µM and 19.7 µM, respectively.
On to `CC(=O)OC[C@@H]1OC(n2cc(COC(=O)[C@@]3(C)CC[C@]4(C)CC[C@]5(C)C(=CC(=O)[C@@H]6[C@@]7(C)CC[C@H](OC(=O)CCc8ccccc8)C(C)(C)C7CC[C@]65C)[C@H]4C3)nn2)[C@@H](OC(C)=O)[C@H](OC(C)=O)[C@H]1OC(C)=O` (stereo partly specified), for which, in series [4], the viability at 24 h, 30 µM is more than 70%. Further, the results for the IC50 at 24 h in series [1], in series [2] and in [3] were 294 µM, more than 800 µM and 398 µM, respectively. Further, the IC50 in the series with RAW264.7 is 30.7 µM; in the series with A549, 207 µM; with Huh-7, 206 µM.
For the molecule `CC1(C)[C@@H](O[C@H]2O[C@H](C(=O)O)[C@@H](O)[C@H](O)[C@H]2O[C@@H]2O[C@H](C(=O)O)[C@@H](O)[C@H](O)[C@H]2O)CC[C@]2(C)[C@H]3C(=O)C=C4[C@@H]5C[C@@](C)(C(=O)O)CC[C@]5(C)CC[C@@]4(C)[C@]3(C)CC[C@@H]12` [GLYCYRRHIZIN], the result in the series on Mus musculus [6], in the series with Mus musculus [7], in the series on Mus musculus [8], in the series on Mus musculus [9] and with Mus musculus [11] was Active. In addition, in series [4], the viability at 24 h, 30 µM is more than 70%. The IC50 at 24 h was 102 µM in [1], 128 µM in [2] and 160 µM in series [3]. In addition, the result with Mus musculus [10] and in the series on Mus musculus [12] was inactive. Besides, the figures for the IC50 in the series with RAW264.7, in the series on A549 and with Huh-7 were 20.7 µM, 80.3 µM and 65.7 µM, respectively.

Values taken from ChEMBL document CHEMBL5625214, “Synthesis of glycyrrhizin analogues as HMGB1 inhibitors and their activity against sepsis in acute kidney injury” (Eur J Med Chem, 2023).
